According to patent publication US8859534B2, “2-carboxamide-7-piperazinyl-benzofuran derivatives” (AstraZeneca AB, priority 2009, dated 2014):

Experiments:
5-HT1A receptor = 5-HT1A receptor (Homo sapiens (Human), UniProt P08908); test: 5-HT1A receptor competition binding assay (SPA, [3H]-8-OH-DPAT); conditions: membranes of CHO cells expressing 5-HT1A receptors; radioligand [3H]-8-OH-DPAT 0.15-0.2 nM
Excerpt: (§1) Assays that were used to measure affinity of the compounds of the present invention for 5-HT1A and 5-HT1B receptors are described in J. Recept Signal Transduct. Res. 22:483-495 (2002) and Naunyn-Schmiedeberg's Arch Pharmacol. 356:328-334 (1997) and incorporated by reference herein. These assays were be used with some modifications:
(§2) For the binding assay stably transfected chinese hamster ovary (CHO) cell lines expressing 5-HT1A receptors or 5-HT1B receptors were harvested by centrifugation at 300×g for 10 min and resuspended in 10 mM Tris-HCl, 5 mM EDTA at pH 7.4. The cells were pooled, recentrifuged and resuspended before homogenisation using a Dounce homogeniser (“type B”). Cell membranes were centrifuged at 48 000×g for 10 min and then resuspended in harvesting buffer using an Ultra-Turrax T8 (IKA Labortechnik, Germany), aliquots were stored frozen in −70° C.
Frozen membrane preparations were thawed, homogenized with an Ultra-Turrax and mixed with SPA beads (YSI coated WGA, GE Healthcare/Amersham, Buckinghamshire, UK) in assay buffer containing 50 mM Tris-Base, 4 mM MgCl2, 4 mM CaCl2 (only 5-HT1B), 1 mM EDTA, and adjusted to pH 7.4 with HCl. […] The binding assays were performed in 384-well plates in a final volume of 90 μL/well with the following additions: 9 μL binding buffer; 1 μL compound/DMSO/nonspecific; 20 μL radioligand; and 60 μL beads/membrane mixture. Non-specific binding was defined by using 10 μM WAY100635 for 5-HT1A and 10 μM Methiothepin for 5-HT1B. The assay plates were incubated for 4 hours where after the plates are counted in a Wallac 1450 Microbeta Trilux counter (PerkinElmer LifeScience, US) or similar. Data from the experiments were analyzed using a four parameter logistic equation as follows: Y=Bottom+(Top-Bottom)/1+10^(LogEC50-X)nH.

5-HT1B receptor = 5-HT1B receptor (Homo sapiens (Human), UniProt P28222); test: 5-HT1B receptor competition binding assay (SPA, [3H]-GR125743); conditions: for Ki: membranes of CHO cells expressing 5-HT1B receptors, radioligand [3H]-GR125743 0.15-0.2 nM
Chain of 5-HT1B receptor (P28222 whole entry): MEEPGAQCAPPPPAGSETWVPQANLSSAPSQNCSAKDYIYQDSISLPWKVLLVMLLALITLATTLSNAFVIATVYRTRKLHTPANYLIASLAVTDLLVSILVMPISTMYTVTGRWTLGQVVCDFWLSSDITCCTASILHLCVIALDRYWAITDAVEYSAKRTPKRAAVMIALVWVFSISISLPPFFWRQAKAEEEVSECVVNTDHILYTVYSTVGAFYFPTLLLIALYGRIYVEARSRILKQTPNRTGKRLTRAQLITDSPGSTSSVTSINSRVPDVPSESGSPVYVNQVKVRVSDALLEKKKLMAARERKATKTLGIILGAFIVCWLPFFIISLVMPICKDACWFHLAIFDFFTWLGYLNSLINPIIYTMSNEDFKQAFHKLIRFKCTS
Excerpt: as §1, §2
Frozen membrane preparations were thawed, homogenized with an Ultra-Turrax and mixed with SPA beads (YSI coated WGA, GE Healthcare/Amersham, Buckinghamshire, UK) in assay buffer containing 50 mM Tris-Base, 4 mM MgCl2, 4 mM CaCl2 (only 5-HT1B), 1 mM EDTA, and adjusted to pH 7.4 with HCl. The beads/membrane solution, final concentration 100 pM receptors for 5-HT1A, 300 pM receptors for 5-HT1B and 0.5 mg SPA beads/well, was pre-incubated in room temperature with stirring for 30-60 min. […] Five (log interval, 10 μM to 1 nM, final concentration) or ten serial dilutions (½-log interval, 10 μM to 0.32 nM, final concentration) of compounds were prepared in DMSO from 10 mM stock solutions. The binding assays were performed in 384-well plates in a final volume of 90 μL/well with the following additions: 9 μL binding buffer; 1 μL compound/DMSO/nonspecific; 20 μL radioligand; and 60 μL beads/membrane mixture. Non-specific binding was defined by using 10 μM WAY100635 for 5-HT1A and 10 μM Methiothepin for 5-HT1B. The assay plates were incubated for 4 hours where after the plates are counted in a Wallac 1450 Microbeta Trilux counter (PerkinElmer LifeScience, US) or similar. Data from the experiments were analyzed using a four parameter logistic equation as follows: Y=Bottom+(Top-Bottom)/1+10^(LogEC50-X)nH.
• Jerning E., Rosqvist S., Mohell N. (2002) NAD-299 antagonises 5-HT-stimulated and Spiperone-inhibited [^35S]GTPγS binding in cloned 5-HT1A receptors. J Recept Signal Transduct Res 22:483-495. • Doménech T., Beleta J., Palacios J. M. (1997) Characterization of human serotonin 1D and 1B receptors using [^3H]-GR-125743, a novel radiolabelled serotonin 5HT1D/1B receptor antagonist. Naunyn-Schmiedeberg's Arch Pharmacol 356:328-334.

Chain of 5-HT1A receptor (P08908 whole entry): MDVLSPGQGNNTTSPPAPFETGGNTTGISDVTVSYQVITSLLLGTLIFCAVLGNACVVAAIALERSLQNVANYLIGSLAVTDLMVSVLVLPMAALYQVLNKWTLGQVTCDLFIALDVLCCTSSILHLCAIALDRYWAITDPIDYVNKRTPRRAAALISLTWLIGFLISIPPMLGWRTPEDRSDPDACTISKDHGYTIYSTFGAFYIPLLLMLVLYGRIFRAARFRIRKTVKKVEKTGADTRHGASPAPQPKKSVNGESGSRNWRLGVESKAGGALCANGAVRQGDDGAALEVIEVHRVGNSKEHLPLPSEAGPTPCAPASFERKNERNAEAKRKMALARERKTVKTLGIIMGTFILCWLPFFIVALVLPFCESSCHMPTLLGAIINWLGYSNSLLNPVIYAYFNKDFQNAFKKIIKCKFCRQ

O=C(NCc1ccccn1)c1cc2cccc(N3CCN(CCc4ccccn4)CC3)c2o1 [Example 1, 7-(4-(2-(Pyridin-2-yl)ethyl)piperazin-1-yl)-N-(pyridin-2-ylmethyl)benzofuran-2-carboxamide]
Ki (5-HT1A receptor): 1.3 nM
Ki (5-HT1B receptor): 19 nM

O=C(Nc1ccc(N2CCOCC2)cc1)c1cc2cccc(N3CCN(CCc4ccccn4)CC3)c2o1 [Example 2, N-(4-Morpholinophenyl)-7-(4-(2-(pyridin-2-yl)ethyl)piperazin-1-yl)benzofuran-2-carboxamide]
Ki (5-HT1A receptor): 1.3 nM
Ki (5-HT1B receptor): 1.1 nM

O=C(NC1CCN(c2ccccc2)CC1)c1cc2cccc(N3CCN(CCc4ccccn4)CC3)c2o1 [Example 3, N-(1-Phenylpiperidin-4-yl)-7-(4-(2-(pyridin-2-yl)ethyl)piperazin-1-yl)benzofuran-2-carboxamide]
Ki (5-HT1A receptor): 0.14 nM
Ki (5-HT1B receptor): 0.52 nM

CS(=O)(=O)c1ccc(CNC(=O)c2cc3cccc(N4CCN(CCc5ccccn5)CC4)c3o2)cc1 [Example 4, N-(4-(Methylsulfonyl)benzyl)-7-(4-(2-(pyridin-2-yl)ethyl)piperazin-1-yl)benzofuran-2-carboxamide]
Ki (5-HT1A receptor): 0.2 nM
Ki (5-HT1B receptor): 1.8 nM

Cn1cnc(CNC(=O)c2cc3cccc(N4CCN(CCc5ccccn5)CC4)c3o2)c1 [Example 5, N-((1-Methyl-1H-imidazol-4-yl)methyl)-7-(4-(2-(pyridin-2-yl)ethyl)piperazin-1-yl)benzofuran-2-carboxamide]
Ki (5-HT1A receptor): 2.2 nM
Ki (5-HT1B receptor): 37 nM

CC(=O)N1CCC(NC(=O)c2cc3cccc(N4CCN(CCc5ccccn5)CC4)c3o2)CC1 [Example 6, N-(1-Acetylpiperidin-4-yl)-7-(4-(2-(pyridin-2-yl)ethyl)piperazin-1-yl)benzofuran-2-carboxamide]
Ki (5-HT1B receptor): 82 nM

CC(NC(=O)c1cc2cccc(N3CCN(CCc4ccccn4)CC3)c2o1)c1ccccn1 (stereo not shown) [Example 7, N-(1-(Pyridin-2-yl)ethyl)-7-(4-(2-(pyridin-2-yl)ethyl)piperazin-1-yl)benzofuran-2-carboxamide]
Ki (5-HT1A receptor): 0.59 nM
Ki (5-HT1B receptor): 9 nM

O=C(NC1CCN(c2ncccc2Cl)CC1)c1cc2cccc(N3CCN(CCc4ccccn4)CC3)c2o1 [Example 8, N-(1-(3-Chloropyridin-2-yl)piperidin-4-yl)-7-(4-(2-(pyridin-2-yl)ethyl)piperazin-1-yl)benzofuran-2-carboxamide]
Ki (5-HT1A receptor): 0.29 nM
Ki (5-HT1B receptor): 0.28 nM

N#Cc1ccc(CNC(=O)c2cc3cccc(N4CCN(CCc5ccccn5)CC4)c3o2)cc1 [Example 9, N-(4-Cyanobenzyl)-7-(4-(2-(pyridin-2-yl)ethyl)piperazin-1-yl)benzofuran-2-carboxamide]
Ki (5-HT1A receptor): 0.44 nM

CN(C)C(=O)c1cc2cccc(N3CCN(CCc4ccccn4)CC3)c2o1 [Example 11, N,N-Dimethyl-7-(4-(2-(pyridin-2-yl)ethyl)piperazin-1-yl)benzofuran-2-carboxamide]
Ki (5-HT1A receptor): 0.16 nM
Ki (5-HT1B receptor): 2.1 nM

CNC(=O)c1cc2cccc(N3CCN(CCc4ccccn4)CC3)c2o1 [Example 12, N-Methyl-7-(4-(2-(pyridin-2-yl)ethyl)piperazin-1-yl)benzofuran-2-carboxamide]
Ki (5-HT1A receptor): 0.11 nM
Ki (5-HT1B receptor): 0.88 nM

O=C(NC1CC1)c1cc2cccc(N3CCN(CCc4ccccn4)CC3)c2o1 [Example 13, N-Cyclopropyl-7-(4-(2-(pyridin-2-yl)ethyl)piperazin-1-yl)benzofuran-2-carboxamide]
Ki (5-HT1B receptor): 6.5 nM

O=C(NC1CC(F)(F)C1)c1cc2cccc(N3CCN(CCc4ccccn4)CC3)c2o1 [Example 14, N-(3,3-Difluorocyclobutyl)-7-(4-(2-(pyridin-2-yl)ethyl)piperazin-1-yl)benzofuran-2-carboxamide]
Ki (5-HT1A receptor): 3.3 nM
Ki (5-HT1B receptor): 42 nM

O=C(c1cc2cccc(N3CCN(CCc4ccccn4)CC3)c2o1)N1CCC1 [Example 15, Azetidin-1-yl(7-(4-(2-(pyridin-2-yl)ethyl)piperazin-1-yl)benzofuran-2-yl)methanone]
Ki (5-HT1A receptor): 1.4 nM
Ki (5-HT1B receptor): 16 nM

O=C(c1cc2cccc(N3CCN(CCc4ccccn4)CC3)c2o1)N1CCCC1 [Example 16, (7-(4-(2-(Pyridin-2-yl)ethyl)piperazin-1-yl)benzofuran-2-yl)(pyrrolidin-1-yl)methanone]
Ki (5-HT1A receptor): 0.78 nM
Ki (5-HT1B receptor): 4.4 nM

CS(=O)(=O)Cc1ccc(CNC(=O)c2cc3cccc(N4CCN(CCc5ccccn5)CC4)c3o2)cc1 [Example 17, N-(4-(Methylsulfonylmethyl)benzyl)-7-(4-(2-(pyridin-2-yl)ethyl)piperazin-1-yl)benzofuran-2-carboxamide]
Ki (5-HT1A receptor): 2 nM
Ki (5-HT1B receptor): 3.3 nM

COc1cccc(CCNC(=O)c2cc3cccc(N4CCN(CCc5ccccn5)CC4)c3o2)c1 [Example 18, N-(3-Methoxyphenethyl)-7-(4-(2-(pyridin-2-yl)ethyl)piperazin-1-yl)benzofuran-2-carboxamide]
Ki (5-HT1A receptor): 1.3 nM
Ki (5-HT1B receptor): 0.7 nM

CN(Cc1cccc(S(C)(=O)=O)c1)C(=O)c1cc2cccc(N3CCN(CCc4ccccn4)CC3)c2o1 [Example 19, N-Methyl-N-(3-(methylsulfonyl)benzyl)-7-(4-(2-(pyridin-2-yl)ethyl)piperazin-1-yl)benzofuran-2-carboxamide]
Ki (5-HT1A receptor): 0.99 nM
Ki (5-HT1B receptor): 10 nM

N#Cc1ccc(CNC(=O)c2cc3cccc(N4CCN(CCc5ccccn5)CC4)c3o2)cn1 [Example 20, N-((6-Cyanopyridin-3-yl)methyl)-7-(4-(2-(pyridin-2-yl)ethyl)piperazin-1-yl)benzofuran-2-carboxamide]
Ki (5-HT1A receptor): 1.1 nM
Ki (5-HT1B receptor): 7.6 nM

CN(Cc1cccnc1)C(=O)c1cc2cccc(N3CCN(CCc4ccccn4)CC3)c2o1 [Example 21, N-Methyl-7-(4-(2-(pyridin-2-yl)ethyl)piperazin-1-yl)-N-(pyridin-3-ylmethyl)benzofuran-2-carboxamide]
Ki (5-HT1A receptor): 2.6 nM
Ki (5-HT1B receptor): 63 nM

Cn1cnc(CCNC(=O)c2cc3cccc(N4CCN(CCc5ccccn5)CC4)c3o2)c1 [Example 30, N-(2-(1-Methyl-1H-imidazol-4-yl)ethyl)-7-(4-(2-(pyridin-2-yl)ethyl)piperazin-1-yl)benzofuran-2-carboxamide]
Ki (5-HT1B receptor): 17 nM

COc1ccnc(CCN2CCN(c3cccc4cc(C(=O)N(C)C)oc34)CC2)c1 [Example 39, 7-(4-(2-(4-Methoxypyridin-2-yl)ethyl)piperazin-1-yl)-N,N-dimethylbenzofuran-2-carboxamide]
Ki (5-HT1B receptor): 66 nM

CN(C)C(=O)c1cc2cccc(N3CCN(CCc4cc(C#N)ccn4)CC3)c2o1 [Example 41, 7-(4-(2-(4-Cyanopyridin-2-yl)ethyl)piperazin-1-yl)-N,N-dimethylbenzofuran-2-carboxamide]
Ki (5-HT1B receptor): 73 nM

COc1cccnc1CCN1CCN(c2cccc3cc(C(=O)N(C)C)oc23)CC1 [Example 48, 7-(4-(2-(3-Methoxy-2-pyridyl)ethyl)piperazin-1-yl)-N,N-dimethylbenzofuran-2-carboxamide]
Ki (5-HT1A receptor): 0.16 nM

CC(=O)N1CCc2cc(CCN3CCN(c4cccc5cc(C(=O)N6CCC6)oc45)CC3)ccc21 [Example 49, 1-(5-(2-(4-(2-(Azetidine-1-carbonyl)benzofuran-7-yl)piperazin-1-yl)ethyl)indolin-1-yl)ethanone]
Ki (5-HT1B receptor): 14 nM

COc1ccc(NC(=O)c2ccc(-c3ccncc3)c(C)c2)cc1N1CCN(C)CC1 [[^3H]-GR125743, reference compound]
Kd (5-HT1B receptor; 5-HT1B receptor, Kd used in the calculation of Ki, read-out: Kd of radioligand, saturation binding studies): 0.87 nM
